Data set [1] addresses T1, ATP-binding cassette sub-family C member 2 (Rattus norvegicus, UniProt Q63120). Description: (§1) TP_TRANSPORTER: Western in vivo, kidney of SD rat. It is filed as functional, organism-based, Sprague-Dawley.
The target in data set [2] is T1, ATP-binding cassette sub-family C member 2. Description: TP_TRANSPORTER: Western in vivo, liver of SD rat. It is filed as functional, organism-based, Sprague-Dawley.
The target of data set [3] is Multidrug resistance protein 1a (Rattus norvegicus) (UniProt Q6PSM0). Described as §1. It counts as functional, organism-based. To be noted: Sprague-Dawley.
Sequence of Multidrug resistance protein 1a (Rattus norvegicus) (Q6PSM0 as listed by the source): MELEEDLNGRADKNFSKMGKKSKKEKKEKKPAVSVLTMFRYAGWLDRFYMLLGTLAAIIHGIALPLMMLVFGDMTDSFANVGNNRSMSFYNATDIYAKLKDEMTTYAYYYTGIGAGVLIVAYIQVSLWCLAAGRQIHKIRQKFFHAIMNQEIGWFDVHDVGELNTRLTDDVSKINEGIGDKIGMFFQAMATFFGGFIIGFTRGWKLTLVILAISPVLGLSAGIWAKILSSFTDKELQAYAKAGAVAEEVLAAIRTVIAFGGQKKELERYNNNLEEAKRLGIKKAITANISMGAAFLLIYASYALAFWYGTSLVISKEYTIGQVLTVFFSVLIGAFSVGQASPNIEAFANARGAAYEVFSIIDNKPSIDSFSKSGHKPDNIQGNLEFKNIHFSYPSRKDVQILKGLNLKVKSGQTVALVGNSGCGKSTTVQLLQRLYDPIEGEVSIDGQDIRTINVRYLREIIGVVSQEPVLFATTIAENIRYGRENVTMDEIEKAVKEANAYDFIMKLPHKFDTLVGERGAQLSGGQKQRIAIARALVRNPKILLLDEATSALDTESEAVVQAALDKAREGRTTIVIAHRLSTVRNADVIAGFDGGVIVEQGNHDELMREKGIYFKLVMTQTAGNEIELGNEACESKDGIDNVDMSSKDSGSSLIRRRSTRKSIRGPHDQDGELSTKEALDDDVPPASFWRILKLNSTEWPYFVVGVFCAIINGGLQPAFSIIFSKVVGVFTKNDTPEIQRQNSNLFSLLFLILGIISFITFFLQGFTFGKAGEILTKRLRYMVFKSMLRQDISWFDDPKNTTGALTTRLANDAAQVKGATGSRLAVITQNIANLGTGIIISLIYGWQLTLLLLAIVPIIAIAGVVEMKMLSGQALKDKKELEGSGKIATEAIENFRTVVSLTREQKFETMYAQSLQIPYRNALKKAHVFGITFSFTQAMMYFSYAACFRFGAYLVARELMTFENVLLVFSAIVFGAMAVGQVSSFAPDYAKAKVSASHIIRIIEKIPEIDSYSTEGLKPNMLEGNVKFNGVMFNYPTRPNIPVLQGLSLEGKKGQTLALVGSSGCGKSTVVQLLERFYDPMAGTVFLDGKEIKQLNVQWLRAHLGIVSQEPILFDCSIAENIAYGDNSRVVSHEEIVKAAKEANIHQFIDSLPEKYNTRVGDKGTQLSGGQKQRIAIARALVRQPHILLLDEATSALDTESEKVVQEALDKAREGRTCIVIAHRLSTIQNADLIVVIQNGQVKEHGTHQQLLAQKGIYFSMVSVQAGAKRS

T1 sequence (Q63120 whole entry): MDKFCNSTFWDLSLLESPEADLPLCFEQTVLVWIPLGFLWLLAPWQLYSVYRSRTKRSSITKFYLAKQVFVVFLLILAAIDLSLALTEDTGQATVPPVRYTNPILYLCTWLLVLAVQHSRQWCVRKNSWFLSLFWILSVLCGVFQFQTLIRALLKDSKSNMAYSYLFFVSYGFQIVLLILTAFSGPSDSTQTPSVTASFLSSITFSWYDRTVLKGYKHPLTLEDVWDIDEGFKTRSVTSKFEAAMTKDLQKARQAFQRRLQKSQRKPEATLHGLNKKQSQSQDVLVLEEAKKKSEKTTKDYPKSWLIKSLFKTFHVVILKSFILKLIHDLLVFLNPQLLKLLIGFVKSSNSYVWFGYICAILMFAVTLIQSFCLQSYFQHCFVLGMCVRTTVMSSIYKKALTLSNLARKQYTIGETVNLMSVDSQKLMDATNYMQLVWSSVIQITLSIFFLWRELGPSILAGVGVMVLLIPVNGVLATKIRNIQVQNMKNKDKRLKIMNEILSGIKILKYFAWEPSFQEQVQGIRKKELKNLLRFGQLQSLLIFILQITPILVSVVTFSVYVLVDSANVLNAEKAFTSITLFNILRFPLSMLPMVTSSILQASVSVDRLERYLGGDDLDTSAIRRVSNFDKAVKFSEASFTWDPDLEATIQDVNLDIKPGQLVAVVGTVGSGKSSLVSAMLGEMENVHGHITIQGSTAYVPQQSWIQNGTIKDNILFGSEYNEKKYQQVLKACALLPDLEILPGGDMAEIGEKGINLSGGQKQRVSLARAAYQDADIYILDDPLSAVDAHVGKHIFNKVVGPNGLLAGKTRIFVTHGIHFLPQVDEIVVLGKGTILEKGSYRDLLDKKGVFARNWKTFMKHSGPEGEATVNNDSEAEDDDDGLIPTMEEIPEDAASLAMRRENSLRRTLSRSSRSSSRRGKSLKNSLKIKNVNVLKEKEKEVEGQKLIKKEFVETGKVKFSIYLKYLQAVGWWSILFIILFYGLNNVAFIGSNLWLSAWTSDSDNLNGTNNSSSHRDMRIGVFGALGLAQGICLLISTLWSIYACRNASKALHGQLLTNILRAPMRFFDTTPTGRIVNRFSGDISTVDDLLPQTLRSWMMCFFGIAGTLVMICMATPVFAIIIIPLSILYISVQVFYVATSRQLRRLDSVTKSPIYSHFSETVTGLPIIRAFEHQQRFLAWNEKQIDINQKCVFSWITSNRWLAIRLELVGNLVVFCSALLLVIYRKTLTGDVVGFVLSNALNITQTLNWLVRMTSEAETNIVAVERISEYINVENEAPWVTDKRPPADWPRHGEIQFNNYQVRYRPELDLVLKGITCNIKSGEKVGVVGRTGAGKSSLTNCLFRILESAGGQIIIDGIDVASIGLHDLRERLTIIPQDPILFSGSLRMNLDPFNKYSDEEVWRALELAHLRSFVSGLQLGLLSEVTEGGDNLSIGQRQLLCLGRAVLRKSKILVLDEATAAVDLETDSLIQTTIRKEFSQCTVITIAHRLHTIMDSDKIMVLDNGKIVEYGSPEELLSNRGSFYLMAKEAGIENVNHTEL

For `C[C@@H]1C[C@H]2[C@@H]3CCC4=CC(=O)C=C[C@]4(C)[C@@]3(F)[C@@H](O)C[C@]2(C)[C@@]1(O)C(=O)CO` [DEXAMETHASONE], the Activity entry in data set [1] is “inducer [+]”; in data set [2], “inducer [+]”; in data set [3], “inducer [Decrease]”.

The record behind these values is ChEMBL document CHEMBL2074267, “Dexamethasone modulation of multidrug transporters in normal tissues” (FEBS Lett, 1999).
